In patent publication US9629816B2, “Small molecule therapeutic compounds targeting thioesterase deficiency disorders and methods of using the same” (The United States of America, as represented by the …, priority 2011, dated 2017):

Assays:
[1] = Solubility in tissue culture media; format: physicochemical
INCL fibroblasts = assay: MTT viability of cultured INCL fibroblasts; format: cell-based, human; conditions: 48 hours of treatment; viability as percent of untreated control (FIG. 4A-C)
Procedure: Ten out of the twelve HA-derivative compounds listed in Table 1 were tested to determine whether they adversely affected the viability of cultured cells from INCL patients. […] Briefly, following treatment with HA-derivatives INCL cells were incubated with Thiazolyl Blue Tetrazolium […] for 4 hours at 37° C. Formazan crystals thus formed were dissolved in acidified isopropanol and absorption was measured at 570 nm. Viability was expressed as percent of untreated control.
Briefly, normal fibroblasts (GM 00498) were obtained from the Coriell Institute of Medical Research, USA. PPT1-deficient INCL fibroblasts were isolated from skin biopsy samples of INCL patients admitted to an ongoing clinical protocol (#01-CH-0086) approved by the Institutional Review Board (IRB) of the National Institute of Child Health and Human Development (NICHD) at the National Institute of Health (NIH). […] The fibroblasts were cultured in the presence or absence of varying concentrations of each of the HA-derivatives for 48 hours, after which the viability of the cells was determined using the MTT-Cell Viability Assay by T. Mossman, (Rapid colorimetric assay for cellular growth and survival. J. Immunol. Method. 65 (1983) 55-63).

[2] = Cleavage of thioester linkage in [14C]palmitoyl-CoA, release of free [14C]palmitate (TLC, autoradiography); format: biochemical; conditions: varying concentrations; various incubation times; [14C]palmitate production
Procedure: It has been reported that thioester linkages in s-acylated proteins are labile, and that compounds having nucleophilic properties are able to disrupt such linkages. Thus, the ability of derivatives of hydroxylamine to disrupt thioester linkages in s-acylated proteins was tested. Twelve HA-derivatives, described in Table 1, were screened for their ability to cleave thioester linkage in [^14C]palmitoyl˜CoA (a model thioester substrate of PPT1), mediating the release of free [^14C]palmitic acid, a process depicted in FIG. 2. […] [^14C]-palmitoyl-CoA was incubated for 1 hour with each of the HA derivatives and the reaction mixture was resolved by thin layer chromatography (TLC) followed by autoradiography. The free [^14C]-palmitate bands were visible and quantitated by densitometric analysis of the bands.

SMILES	solubility in tissue culture media [1]	dose- and time-dependence of thioester linkage cleavage in [14C]palmitoyl-CoA [2]	also measured
ON(Cc1ccccc1)Cc1ccccc1 [N,N-dibenzylhydroxylamine, N,N-Dibenzylhydroxylamine]	insoluble in tissue culture media		
O=C(c1ccccc1)N(O)c1ccccc1 [N-Benzoyl-N-phenyl hydroxylamine]			toxicity / viability of INCL cells (MTT) (INCL fibroblasts): all ten compounds except N-Benzoyl-N-phenyl hydroxylamine are non-toxic
CC(ON(C(c1ccccc1)C(C)C)C(C)(C)C)c1ccc(CCl)cc1 (centres unmarked) [N-tert-Butyl-O-[1-[4-(chloromethyl)phenyl]ethyl]-N-(2-methyl-1-phenylpropyl)hydroxylamine]	insoluble in tissue culture media		
ONCc1ccccc1 [benzyl-HA, N-Benzylhydroxylamine]		cleaved the thioester linkage in a dose-dependent and time-dependent manner	
CNO [methyl-HA, N-Methylhydroxylamine]		cleaved the thioester linkage in a dose-dependent and time-dependent manner	
